What all share (type): cell-based
Holding throughout (conditions): 16 h treatment, EGFR degradation by HTRF

One assay has as its target T1, EGFR (Homo sapiens, UniProt P00533, DEL746-750).
T1 construct: endogenous in cells; host or cells: HCC827
Nature of the assay: Cell Degradation 2: EGFR degradation in HCC827 cells, HTRF assay. The procedure, abridged: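 Compound-treated HCC827 cells were lysed after 16 h and EGFR measured by HTRF (337 nm excitation, 665/620 nm emission) after overnight antibody incubation at room temperature. DC50 came from a four-parameter fit of percent inhibition against compound concentration.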

The next assay concerns the target T2, EGFR LTC (Homo sapiens, UniProt P00533, C797S/L858R/T790M).
T2 construct: expressed in transfected cells; host or cells: BaF3
As to the kind of experiment: Cell Degradation 3: EGFR degradation in BaF3 cells (LTC), HTRF assay. The procedure:
(§1) Cell Degradation 3 Cell Treatment
(§2) BaF3 cells are treated with compounds diluted in 0.2% DMSO, dilution is done according to the following protocol: (1) make 500× stock solution in DMSO from 5 mM by 4-fold dilution, total 8 doses were included; (2) make 2× solution in cell culture medium by transferring 0.5 μl 500× stock solution into 125 μl medium; (3) 30 μl of 2× solution is added to cells and incubate for 16 h.
(§3) After 16 h treatment, add 20 μl 4×lysis buffer to each well; seal the plate and incubate 1 hour at room temperature on a plate shaker; Once the cells are lysed, 16 μL of cell lysate are transferred to a PE 384-well HTRF detection plate (for triple mutant cells, the lysate were diluted by the qual volume 1×lysis buffer before transfer); 4 μL of pre-mixed HTRF antibodies are added to each well; Cover the plate with a plate sealer, spin 1000 rpm for 1 min, Incubate overnight at room temperature; Read on BMG PheraStar with HTRF protocol (337 nm-665 nm-620 nm).
(§4) The IC50 (DC50) value of a compound can be obtained by fitting the following equation Y=Bottom+(TOP−Bottom)/(1+((IC50/X)^hillslope))
(§5) Wherein, X and Y are known values, and IC50, Hillslope, Top and Bottom are the parameters obtained by fitting with software. Y is the inhibition percentage (calculated from the equation), X is the concentration of the compound; IC50 is the concentration of the compound when the 50% inhibition is reached. The smaller the IC50 value is, the stronger the inhibitory ability of the compound is. Vice versa, the higher the IC50 value is, the weaker the ability the inhibitory ability of the compound is; Hillslope represents the slope of the fitted curve, generally around 1*; Bottom represents the minimum value of the curve obtained by data fitting, which is generally 0%±20%; Top represents the maximum value of the curve obtained by data fitting, which is generally 100%±20%. The experimental data were fitted by calculating and analyzing with Dotmatics data analysis software.

The next assay has as its system EGFR DTC. As to the kind of experiment: Cell Degradation 3: EGFR degradation in BaF3 cells (DTC), HTRF assay. How it is done: as §1, §2, §3, §4, §5
Background: Time-resolved FRET reads energy transfer from a long-lived donor to a nearby acceptor.

T2 sequence (P00533 25-1210 T790M/C797S/L858R): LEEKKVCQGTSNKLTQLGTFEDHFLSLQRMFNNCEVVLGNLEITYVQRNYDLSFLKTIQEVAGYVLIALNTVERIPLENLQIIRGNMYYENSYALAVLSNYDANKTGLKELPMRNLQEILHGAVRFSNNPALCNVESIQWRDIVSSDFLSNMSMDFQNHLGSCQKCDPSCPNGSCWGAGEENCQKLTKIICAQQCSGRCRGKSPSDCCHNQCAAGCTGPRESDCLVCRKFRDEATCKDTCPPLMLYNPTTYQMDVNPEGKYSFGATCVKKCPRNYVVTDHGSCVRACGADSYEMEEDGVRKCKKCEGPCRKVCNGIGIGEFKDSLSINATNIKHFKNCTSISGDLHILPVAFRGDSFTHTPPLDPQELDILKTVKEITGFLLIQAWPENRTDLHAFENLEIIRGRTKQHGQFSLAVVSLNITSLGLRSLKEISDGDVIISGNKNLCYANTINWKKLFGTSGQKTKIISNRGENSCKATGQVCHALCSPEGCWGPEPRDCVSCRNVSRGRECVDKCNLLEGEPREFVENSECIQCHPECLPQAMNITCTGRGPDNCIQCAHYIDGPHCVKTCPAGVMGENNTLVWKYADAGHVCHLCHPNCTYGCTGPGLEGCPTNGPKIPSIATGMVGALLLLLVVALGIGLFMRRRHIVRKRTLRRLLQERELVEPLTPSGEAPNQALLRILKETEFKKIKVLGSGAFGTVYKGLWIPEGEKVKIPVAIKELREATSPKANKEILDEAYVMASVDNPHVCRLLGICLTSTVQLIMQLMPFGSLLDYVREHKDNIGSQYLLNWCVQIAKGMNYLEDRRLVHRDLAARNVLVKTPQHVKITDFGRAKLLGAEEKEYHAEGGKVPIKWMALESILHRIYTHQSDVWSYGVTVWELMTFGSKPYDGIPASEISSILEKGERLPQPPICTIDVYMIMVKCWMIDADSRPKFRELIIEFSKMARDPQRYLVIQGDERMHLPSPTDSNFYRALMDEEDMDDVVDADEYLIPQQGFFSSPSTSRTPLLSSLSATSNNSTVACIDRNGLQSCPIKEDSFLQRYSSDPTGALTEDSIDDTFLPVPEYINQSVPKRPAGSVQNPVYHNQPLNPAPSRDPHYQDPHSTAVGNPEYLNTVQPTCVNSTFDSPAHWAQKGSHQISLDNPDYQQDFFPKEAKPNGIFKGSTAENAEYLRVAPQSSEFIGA
T1 sequence (P00533 with tags, fused parts or gaps DEL746-750): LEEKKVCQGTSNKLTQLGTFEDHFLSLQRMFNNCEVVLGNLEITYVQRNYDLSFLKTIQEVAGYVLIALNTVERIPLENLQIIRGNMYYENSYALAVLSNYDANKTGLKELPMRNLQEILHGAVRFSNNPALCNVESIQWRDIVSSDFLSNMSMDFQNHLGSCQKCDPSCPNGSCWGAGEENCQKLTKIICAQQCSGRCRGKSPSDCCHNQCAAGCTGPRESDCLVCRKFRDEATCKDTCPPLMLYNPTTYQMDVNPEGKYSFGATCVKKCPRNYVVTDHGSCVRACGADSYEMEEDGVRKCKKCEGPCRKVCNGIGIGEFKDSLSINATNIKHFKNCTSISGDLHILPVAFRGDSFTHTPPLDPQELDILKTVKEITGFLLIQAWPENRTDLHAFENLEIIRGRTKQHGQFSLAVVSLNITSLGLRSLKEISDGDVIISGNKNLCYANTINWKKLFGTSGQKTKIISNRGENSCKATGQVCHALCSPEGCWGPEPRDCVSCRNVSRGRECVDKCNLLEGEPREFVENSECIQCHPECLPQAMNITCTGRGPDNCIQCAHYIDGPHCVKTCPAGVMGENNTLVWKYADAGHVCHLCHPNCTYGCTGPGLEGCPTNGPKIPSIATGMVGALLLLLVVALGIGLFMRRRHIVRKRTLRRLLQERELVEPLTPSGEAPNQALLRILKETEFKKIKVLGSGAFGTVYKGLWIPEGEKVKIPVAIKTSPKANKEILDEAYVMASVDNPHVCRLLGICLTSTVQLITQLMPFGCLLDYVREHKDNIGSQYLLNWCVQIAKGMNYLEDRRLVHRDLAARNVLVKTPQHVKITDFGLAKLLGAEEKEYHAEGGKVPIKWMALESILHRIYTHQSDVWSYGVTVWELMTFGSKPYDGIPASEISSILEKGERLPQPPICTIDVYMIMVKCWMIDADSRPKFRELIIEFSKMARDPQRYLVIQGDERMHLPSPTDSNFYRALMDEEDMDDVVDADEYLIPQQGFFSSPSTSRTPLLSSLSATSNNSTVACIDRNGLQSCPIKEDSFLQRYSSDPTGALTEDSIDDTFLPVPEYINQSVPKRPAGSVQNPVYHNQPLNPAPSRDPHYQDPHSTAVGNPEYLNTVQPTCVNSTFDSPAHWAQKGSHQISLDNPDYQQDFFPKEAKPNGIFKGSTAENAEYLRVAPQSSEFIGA
T1 sequence (Q96SW2 whole entry partner): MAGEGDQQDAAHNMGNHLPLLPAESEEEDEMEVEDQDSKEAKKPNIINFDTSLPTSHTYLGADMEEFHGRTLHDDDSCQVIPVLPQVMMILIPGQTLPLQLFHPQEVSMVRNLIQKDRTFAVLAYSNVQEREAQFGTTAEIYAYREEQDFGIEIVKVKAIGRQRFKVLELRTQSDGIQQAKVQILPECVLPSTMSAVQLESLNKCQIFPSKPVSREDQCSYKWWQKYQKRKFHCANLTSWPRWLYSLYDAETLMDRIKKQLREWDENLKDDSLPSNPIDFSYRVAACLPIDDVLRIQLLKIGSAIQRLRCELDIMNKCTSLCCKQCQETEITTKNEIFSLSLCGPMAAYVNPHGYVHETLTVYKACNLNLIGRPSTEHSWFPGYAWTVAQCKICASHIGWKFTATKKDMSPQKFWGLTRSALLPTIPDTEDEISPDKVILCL

For orientation: DC50 means the concentration at which degradation of the target reaches its halfway point. Read a low DC50 as a more potent degrader. With `COc1cc(N2CCC(N3CCN(C(=O)C4CN(c5ccc6c(c5)CN(C5CCC(=O)NC5=O)C6=O)C4)CC3)CC2)c(C)cc1Nc1ncc(Br)c(Nc2cccc3c2N(S(C)(=O)=O)CC3)n1` (centres unmarked) [Example 172, 3-(5-(3-(4-(1-(4-((5-bromo-4-((1-(methylsulfonyl)indolin-7-yl)amino)pyrimidin-2-yl)amino)-5-methoxy-2-methylphenyl)piperidin-4-yl)piperazine-1-carbonyl)azetidin-1-yl)-1-oxoisoindolin-2-yl)piperidine-2,6-dione], the half-maximal degradation concentration (DC50) amounted to 0.002 µM on EGFR, 9 nM on EGFR LTC and 4 nM in the assay with EGFR DTC.
On to `COc1cc(N2CCC(N3CCN(CCc4cc(Cl)c(C5CCC(=O)NC5=O)cc4F)CC3)CC2)c(C)cc1Nc1ncc(Br)c(Nc2cccc3c2N(S(C)(=O)=O)CC3)n1` (centres unmarked) [Example 174, 3-(4-(2-(4-(1-(4-((5-bromo-4-((1-(methylsulfonyl)indolin-7-yl)amino)pyrimidin-2-yl)amino)-5-methoxy-2-methylphenyl)piperidin-4-yl)piperazin-1-yl)ethyl)-2-chloro-5-fluorophenyl)piperidine-2,6-dione], for which the half-maximal degradation concentration (DC50) at EGFR LTC came out at 69 nM; in the assay with EGFR DTC, 30 nM.
The corresponding values for `COc1cc(N2CCC(N3CCN(CC4CCN(c5ccc6c(c5)CN(C5CCC(=O)NC5=O)C6=O)CC4)CC3)CC2)c(C)cc1Nc1ncc(Br)c(Nc2cccc3c2N(S(C)(=O)=O)CC3)n1` (centres unmarked) [Example 175, 3-(5-(4-((4-(1-(4-((5-bromo-4-((1-(methylsulfonyl)indolin-7-yl)amino)pyrimidin-2-yl)amino)-5-methoxy-2-methylphenyl)piperidin-4-yl)piperazin-1-yl)methyl)piperidin-1-yl)-1-oxoisoindolin-2-yl)piperidine-2,6-dione] are 31 nM and 17 nM.
Taken in the same sequence, the figures for `COc1cc(N2CCC(N3CCN(C[C@H]4C[C@H](N(C)c5ccc(C6CCC(=O)NC6=O)cc5)C4)CC3)CC2)c(C)cc1Nc1ncc(Br)c(Nc2cccc3c2N(S(C)(=O)=O)CC3)n1` (some centres unmarked) [Example 176, 3-(4-(((1r,3r)-3-((4-(1-(4-((5-bromo-4-((1-(methylsulfonyl)indolin-7-yl)amino)pyrimidin-2-yl)amino)-5-methoxy-2-methylphenyl)piperidin-4-yl)piperazin-1-yl)methyl)cyclobutyl)(methyl)amino)phenyl)piperidine-2,6-dione] were 65 nM and 94 nM.
Turning to `COc1cc(N2CCC(N3CCN(C4CCN(c5cccc(C6CCC(=O)NC6=O)c5)CC4)CC3)CC2)c(C)cc1Nc1ncc(Br)c(Nc2cccc3c2N(S(C)(=O)=O)CC3)n1` (centres unmarked) [Example 177, 3-(3-(4-(4-(1-(4-((5-bromo-4-((1-(methylsulfonyl)indolin-7-yl)amino)pyrimidin-2-yl)amino)-5-methoxy-2-methylphenyl)piperidin-4-yl)piperazin-1-yl)piperidin-1-yl)phenyl)piperidine-2,6-dione], the DC50 at EGFR LTC was 123 nM; in the assay on EGFR DTC, greater than 10000 nM.
Taken in the same sequence, the figures for `COc1cc(N2CCC(N3CCN(C(=O)C4CCN(c5ccc6c(c5)C(=O)N(C5CCC(=O)NC5=O)C6=O)CC4)CC3)CC2)c(C)cc1Nc1ncc(Cl)c(Nc2cccc3c2N(S(C)(=O)=O)CC3)n1` (centres unmarked) [Example 178, 5-(4-(4-(1-(4-((5-chloro-4-((1-(methylsulfonyl)indolin-7-yl)amino)pyrimidin-2-yl)amino)-5-methoxy-2-methylphenyl)piperidin-4-yl)piperazine-1-carbonyl)piperidin-1-yl)-2-(2,6-dioxopiperidin-3-yl)isoindoline-1,3-dione] were 23 nM and 8 nM.
The corresponding values for `COc1cc(N2CCC(N3CCN(CC4CN(c5ccc6c(c5)C(=O)N(C5CCC(=O)NC5=O)C6)C4)CC3)CC2)c(C)cc1Nc1ncc(Br)c(Nc2cccc3c2N(S(C)(=O)=O)CC3)n1` (centres unmarked) [Example 180, 3-(6-(3-((4-(1-(4-((5-bromo-4-((1-(methylsulfonyl)indolin-7-yl)amino)pyrimidin-2-yl)amino)-5-methoxy-2-methylphenyl)piperidin-4-yl)piperazin-1-yl)methyl)azetidin-1-yl)-1-oxoisoindolin-2-yl)piperidine-2,6-dione] are 30 nM and 14 nM.
Taken in the same sequence, the figures for `COc1cc(N2CCC(N3CCN(CC4CCN(c5cc(F)c(C6CCC(=O)NC6=O)c(F)c5)CC4)CC3)CC2)c(C)cc1Nc1ncc(Br)c(Nc2cccc3c2N(S(C)(=O)=O)CC3)n1` (centres unmarked) [Example 181, 3-(4-(4-((4-(1-(4-((5-bromo-4-((1-(methylsulfonyl)indolin-7-yl)amino)pyrimidin-2-yl)amino)-5-methoxy-2-methylphenyl)piperidin-4-yl)piperazin-1-yl)methyl)piperidin-1-yl)-2,6-difluorophenyl)piperidine-2,6-dione] were 64 nM and 43 nM.
Consider `COc1cc(N2CCC(N3CCN(C4CC(c5ccc(NC6CCC(=O)NC6=O)cc5)C4)CC3)CC2)c(C)cc1Nc1ncc(Br)c(Nc2cccc3c2N(S(C)(=O)=O)CC3)n1` (centres unmarked) [Example 182, 3-((4-(3-(4-(1-(4-((5-bromo-4-((1-(methylsulfonyl)indolin-7-yl)amino)pyrimidin-2-yl)amino)-5-methoxy-2-methylphenyl)piperidin-4-yl)piperazin-1-yl)cyclobutyl)phenyl)amino)piperidine-2,6-dione], for which the DC50 was determined as 70 nM at EGFR LTC and 77 nM with EGFR DTC.
The corresponding values for `COc1cc(N2CCC(N3CCN(CC4CN(c5cc(F)c(C6CCC(=O)NC6=O)c(F)c5)C4)CC3)CC2)c(C)cc1Nc1ncc(Br)c(Nc2cccc3c2N(S(C)(=O)=O)CC3)n1` (centres unmarked) [Example 184, 3-(4-(3-((4-(1-(4-((5-bromo-4-((1-(methylsulfonyl)indolin-7-yl)amino)pyrimidin-2-yl)amino)-5-methoxy-2-methylphenyl)piperidin-4-yl)piperazin-1-yl)methyl)azetidin-1-yl)-2,6-difluorophenyl)piperidine-2,6-dione] are 33 nM and 27 nM.
In the case of `COc1cc(N2CCC(N3CCN(CCc4cc(F)c(C5CCC(=O)NC5=O)c(F)c4)CC3=O)CC2)c(C)cc1Nc1ncc(Br)c(Nc2cccc3c2N(S(C)(=O)=O)CC3)n1` (centres unmarked) [Example 185, 3-(4-(2-(4-(1-(4-((5-bromo-4-((1-(methylsulfonyl)indolin-7-yl)amino)pyrimidin-2-yl)amino)-5-methoxy-2-methylphenyl)piperidin-4-yl)-3-oxopiperazin-1-yl)ethyl)-2,6-difluorophenyl)piperidine-2,6-dione], the 50% degradation concentration (DC50) amounted to 18 nM at EGFR LTC and 4 nM with EGFR DTC.
On to `COc1cc(N2CCC(N3CCN(CCC4CCN(c5cc(F)c(C6CCC(=O)NC6=O)c(F)c5)CC4)CC3=O)CC2)c(C)cc1Nc1ncc(Br)c(Nc2cccc3c2N(S(C)(=O)=O)CC3)n1` (centres unmarked) [Example 186, 3-(4-(4-(2-(4-(1-(4-((5-bromo-4-((1-(methylsulfonyl)indolin-7-yl)amino)pyrimidin-2-yl)amino)-5-methoxy-2-methylphenyl)piperidin-4-yl)-3-oxopiperazin-1-yl)ethyl)piperidin-1-yl)-2,6-difluorophenyl)piperidine-2,6-dione], for which the half-maximal degradation concentration (DC50) on EGFR LTC amounted to 27 nM; in the assay on EGFR DTC it was 6 nM.
Taken in the same sequence, the figures for `COc1cc(N2CCC(N3CCN(C(=O)C4CCN(c5cc(F)c(C6CCC(=O)NC6=O)c(F)c5)C4)CC3)CC2)c(C)cc1Nc1ncc(Br)c(Nc2cccc3c2N(S(C)(=O)=O)CC3)n1` (centres unmarked) [Example 187, 3-(4-(3-(4-(1-(4-((5-bromo-4-((1-(methylsulfonyl)indolin-7-yl)amino)pyrimidin-2-yl)amino)-5-methoxy-2-methylphenyl)piperidin-4-yl)piperazine-1-carbonyl)pyrrolidin-1-yl)-2,6-difluorophenyl)piperidine-2,6-dione] were 19 nM and 14 nM.
The corresponding values for `COc1cc(N2CCC(N3CCN(C(=O)C4CN(c5cc(F)c(C6CCC(=O)NC6=O)c(F)c5)C4)CC3)CC2)c(C)cc1Nc1ncc(Br)c(Nc2cccc3c2N(S(C)(=O)=O)CC3)n1` (centres unmarked) [Example 188, 3-(4-(3-(4-(1-(4-((5-bromo-4-((1-(methylsulfonyl)indolin-7-yl)amino)pyrimidin-2-yl)amino)-5-methoxy-2-methylphenyl)piperidin-4-yl)piperazine-1-carbonyl)azetidin-1-yl)-2,6-difluorophenyl)piperidine-2,6-dione] are 15 nM and 6 nM.
